One experiment concerns the target human KHK-C (Homo sapiens (Human), UniProt P50053). In words: KHK Biochemical Assay (IC50), ADP-Glo, KHK-C. Conditions: average of at least two separate assays. A digest of the protocol:
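Luminescent ADP-Glo read-out of ADP made by His-tagged KHK (BL21 (DE3) expression, Ni-NTA). Enzyme and compound sat together 30 min before ATP/fructose addition, then reacted 4 h at RT in Hepes pH 7.4 buffer with KCl, MgCl2, Triton-X. Quench 1 h, detection 1 h.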
Background: In ADP-Glo the light output rises with the ADP produced.

For experiment [1], the target named is KHK-C expressed in NRK-52E cells (Homo sapiens (Human), UniProt P50053). In words: KHK-C Cell-based Assay (EC50), NRK CTG, fructose-mediated ATP-depletion.
Setting [2] is: read-out: NRK CTG EC50, NRK-52E cells, Cell-Titer Glo, 25 mM fructose.

Like-named read-outs stand apart in the source and are kept apart here.

Chain of KHK-C expressed in NRK-52E cells (P50053 whole entry): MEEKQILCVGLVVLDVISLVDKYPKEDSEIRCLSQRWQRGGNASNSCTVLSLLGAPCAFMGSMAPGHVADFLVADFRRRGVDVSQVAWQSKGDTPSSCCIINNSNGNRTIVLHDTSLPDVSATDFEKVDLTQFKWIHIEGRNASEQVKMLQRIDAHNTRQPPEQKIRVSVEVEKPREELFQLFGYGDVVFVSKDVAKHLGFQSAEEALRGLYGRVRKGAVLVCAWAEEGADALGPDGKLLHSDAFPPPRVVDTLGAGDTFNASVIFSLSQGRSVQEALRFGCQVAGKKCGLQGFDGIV
Chain of human KHK-C (P50053 whole entry): as above

A word on the IC50: it is the concentration that gives 50% inhibition. A lower IC50 goes with inhibition by little substance. Usually EC50 stands for the concentration giving half of the maximal effect. `C[C@H]1CCN1c1nc2c(c(-c3cccc([C@H]4C[C@@H](C(=O)O)C4)c3)n1)CCC2` (single isomer, unassigned) [Example 440] returned an IC50 against human KHK-C of 6.2 nM. Further, in experiment [1] (setting [2]), the EC50 amounted to 81.6 nM.
At human KHK-C, `C[C@H]1CCN1c1nc2c(c(-c3cccc([C@H]4C[C@H](C(=O)O)C4)c3)n1)CCC2` (single isomer, unassigned) [Example 441] showed a half-maximal inhibitory concentration (IC50) of 7 nM. In addition, in experiment [1] (setting [2]), the EC50 came to 211 nM.
At human KHK-C, `C[C@H]1CCN1c1nc2c(c(-c3cccc([S+](C)[O-])c3)n1)CCC2` (stereo in doubt) [Example 400, (S)-2-(2-methylazetidin-1-yl)-4-(3-(methylsulfinyl)phenyl)-6,7-dihydro-5H-cyclopenta[d]pyrimidine] yielded an IC50 of 156 nM. In experiment [1], this compound yielded an EC50 of 320 nM.
`C[C@H]1CCN1c1nc2c(c(-c3cccc(CN4CCCS4(=O)=O)c3)n1)CCC2` [Example 75, (S)-2-(3-(2-(2-methylazetidin-1-yl)-6,7-dihydro-5H-cyclopenta[d]pyrimidin-4-yl)benzyl)isothiazolidine 1,1-dioxide]: the IC50 against human KHK-C (ADP-Glo) is 18.9 nM. Moreover, the EC50 in experiment [1] stood at 54.7 nM.
Regarding `C[C@H]1CNC(=O)c2ccc(-c3nc(N4C[C@@H](O)[C@@H]4C)nc4c3CCC4(F)F)cc2O1` [Example 87], at human KHK-C (ADP-Glo), half-maximal inhibition (IC50) required 3.4 nM. Moreover, the concentration for a half-maximal effect (EC50) in experiment [1] was 46 nM.
The matching figures for `C[C@@H]1CNC(=O)c2ccc(-c3nc(N4C[C@@H](O)[C@@H]4C)nc4c3CCC4(F)F)cc2O1` [Example 94]: 8.4 nM and 84.1 nM.
Turning to `C[C@H]1[C@H](O)CN1c1nc2c(c(-c3ccc(C(=O)O)cc3)n1)CCC2` [Example 162, 4-(2-((2S,3R)-3-hydroxy-2-methylazetidin-1-yl)-6,7-dihydro-5H-cyclopenta[d]pyrimidin-4-yl)benzoic acid], inhibition against human KHK-C (ADP-Glo) was half-maximal at 93.1 nM (IC50). In experiment [1], this compound yielded a half-maximal effective concentration (EC50) above 5000 nM.
The matching figures for `C[C@H]1CCN1c1nc2c(c(-c3ccc4cnccc4c3)n1)CCC2` [Example 163, (S)-6-(2-(2-methylazetidin-1-yl)-6,7-dihydro-5H-cyclopenta[d]pyrimidin-4-yl)isoquinoline]: 49 nM and 251 nM.
As to `C[C@H]1[C@H](O)CN1c1nc2c(c(-c3ccc4c(c3)OCCNC4=O)n1)CCC2` [Example 164, 8-(2-((2S,3R)-3-hydroxy-2-methylazetidin-1-yl)-6,7-dihydro-5H-cyclopenta[d]pyrimidin-4-yl)-3,4-dihydrobenzo[f][1,4]oxazepin-5(2H)-one], the IC50 against human KHK-C (ADP-Glo) was found to be 16.4 nM. This compound returned an EC50 in experiment [1] of 94.5 nM.
On the same counts, the results for `C[C@H]1c2ccccc2CN1c1nc2c(c(-c3ccc(C(N)=O)cc3)n1)CCC2` [Example 167, (S)-4-(2-(1-methylisoindolin-2-yl)-6,7-dihydro-5H-cyclopenta[d]pyrimidin-4-yl)benzamide] are above 5000 nM and above 5000 nM.
As to `C[C@H]1[C@H](O)CN1c1nc(-c2ccc(C(N)=O)nc2)c2c(n1)C(F)(F)CC2` [Example 168, 5-(7,7-difluoro-2-((2S,3R)-3-hydroxy-2-methylazetidin-1-yl)-6,7-dihydro-5H-cyclopenta[d]pyrimidin-4-yl)picolinamide], the concentration for half-maximal inhibition (IC50) on human KHK-C (ADP-Glo) turned out to be 23.3 nM. In experiment [1], this compound registered an EC50 of 144 nM.
On the same counts, the results for `C[C@H]1[C@@H](O)CN1c1nc2c(c(-c3ccc(C(N)=O)cc3)n1)CCC2` [Example 169, 4-(2-((2S,3S)-3-hydroxy-2-methylazetidin-1-yl)-6,7-dihydro-5H-cyclopenta[d]pyrimidin-4-yl)benzamide] are 4430 nM and above 5000 nM.
Take `CNC(=O)c1ccc(-c2nc(N3C[C@@H](O)[C@@H]3C)nc3c2CCC3(F)F)cc1` [Example 171, 4-(7,7-difluoro-2-((2S,3R)-3-hydroxy-2-methylazetidin-1-yl)-6,7-dihydro-5H-cyclopenta[d]pyrimidin-4-yl)-N-methylbenzamide]: on human KHK-C (ADP-Glo), half-maximal inhibition (IC50) was put at 23.5 nM. In experiment [1], this compound registered an EC50 of 165 nM.
The matching figures for `NC(=O)c1ccc(-c2nc(N3Cc4n[nH]cc4C3CO)nc3c2CCC3)cc1` (stereo not drawn) [Example 172, 4-(2-(4-(hydroxymethyl)-2,6-dihydropyrrolo[3,4-c]pyrazol-5(4H)-yl)-6,7-dihydro-5H-cyclopenta[d]pyrimidin-4-yl)benzamide]: above 5000 nM and above 5000 nM.
Consider `NC(=O)c1ccc(-c2nc(N3CCn4nccc43)nc3c2CCC3)cc1` [Example 173, 4-(2-(2,3-dihydro-1H-imidazo[1,2-b]pyrazol-1-yl)-6,7-dihydro-5H-cyclopenta[d]pyrimidin-4-yl)benzamide], for which the IC50 on human KHK-C (ADP-Glo) is above 5000 nM. In experiment [1], this compound showed an EC50 above 5000 nM.
At human KHK-C (ADP-Glo), `NC(=O)c1ccc(-c2nc(N3CCn4cncc43)nc3c2CCC3)cc1` [Example 174, 4-(2-(2,3-dihydro-1H-imidazo[1,5-a]imidazol-1-yl)-6,7-dihydro-5H-cyclopenta[d]pyrimidin-4-yl)benzamide] returned an IC50 above 5000 nM. The compound also gave an EC50 in experiment [1] above 5000 nM.
In turn, `C[C@H]1[C@H](O)CN1c1nc(-c2ccc(C(N)=O)cc2)c2c(n1)C1CC2C1` [Example 176] showed an IC50 against human KHK-C (ADP-Glo) of 899 nM. The compound also displayed an EC50 in experiment [1] of 2810 nM.
For `C[C@H]1COc2cc(-c3nc(N4C[C@@H](O)[C@@H]4C)nc4c3CCC4(F)F)ccc2C(=O)N1` [Example 179, (S)-8-(7,7-difluoro-2-((2S,3R)-3-hydroxy-2-methylazetidin-1-yl)-6,7-dihydro-5H-cyclopenta[d]pyrimidin-4-yl)-3-methyl-3,4-dihydrobenzo[f][1,4]oxazepin-5(2H)-one], the IC50 against human KHK-C (ADP-Glo) was determined as 34.8 nM. This compound also came in with an EC50 in experiment [1] of 386 nM.
In the case of `C[C@@H]1COc2cc(-c3nc(N4C[C@@H](O)[C@@H]4C)nc4c3CCC4(F)F)ccc2C(=O)N1` [Example 180, (R)-8-(7,7-difluoro-2-((2S,3R)-3-hydroxy-2-methylazetidin-1-yl)-6,7-dihydro-5H-cyclopenta[d]pyrimidin-4-yl)-3-methyl-3,4-dihydrobenzo[f][1,4]oxazepin-5(2H)-one], the IC50 against human KHK-C (ADP-Glo) was found to be 27.4 nM. In experiment [1], this compound displayed an EC50 of 177 nM.
On the same counts, the results for `CC(=O)Nc1cc(-c2nc(N3C[C@@H](O)[C@@H]3C)nc3c2CCC3(F)F)ccc1C(N)=O` [Example 181, 2-acetamido-4-(7,7-difluoro-2-((2S,3R)-3-hydroxy-2-methylazetidin-1-yl)-6,7-dihydro-5H-cyclopenta[d]pyrimidin-4-yl)benzamide] are 11 nM and 579 nM.
On the same counts, the results for `C[C@H]1[C@H](O)CN1c1nc(-c2ccc(C(N)=O)c(OC(F)(F)F)c2)c2c(n1)C(F)(F)CC2` [Example 183, 4-(7,7-difluoro-2-((2S,3R)-3-hydroxy-2-methylazetidin-1-yl)-6,7-dihydro-5H-cyclopenta[d]pyrimidin-4-yl)-2-(trifluoromethoxy)benzamide] are 21.3 nM and 89.1 nM.
`C[C@H]1[C@H](O)CN1c1nc2c(c(-c3ccc(CNS(C)(=O)=O)cc3)n1)CCC2` [Example 195, N-[[4-[2-[(2S,3R)-3-hydroxy-2-methyl-azetidin-1-yl]-6,7-dihydro-5H-cyclopenta[d]pyrimidin-4-yl]phenyl]methyl]methanesulfonamide]: on human KHK-C (ADP-Glo), inhibition was half-maximal at 58.6 nM (IC50). Further, in experiment [1], a half-maximal response (EC50) required 431 nM.
Regarding `C[C@H]1CCN1c1nc2c(c(-c3ccncn3)n1)CCC2` [Example 393, 2-[(2S)-2-methylazetidin-1-yl]-4-pyrimidin-4-yl-6,7-dihydro-5H-cyclopenta[d]pyrimidine], at human KHK-C, the midpoint of inhibition, the IC50, lay at 219 nM. Besides, the EC50 in experiment [1] came out at 403 nM.
On the same counts, the results for `C[C@H]1CCN1c1nc2c(c(-c3nccn3C)n1)CCC2` [Example 394, 2-[(2S)-2-methylazetidin-1-yl]-4-(1-methylimidazol-2-yl)-6,7-dihydro-5H-cyclopenta[d]pyrimidine] are 172 nM and 785 nM.
As for `C[C@H]1CCN1c1nc2c(c(-c3nc4ccc(C(=O)O)cc4n3C)n1)CCC2` [Example 395, 3-methyl-2-[2-[(2S)-2-methylazetidin-1-yl]-6,7-dihydro-5H-cyclopenta[d]pyrimidin-4-yl]benzimidazole-5-carboxylic acid], at human KHK-C, half-maximal inhibition (IC50) required 329 nM. In experiment [1], this compound registered an EC50 above 5000 nM.
On the same counts, the results for `C[C@H]1CCN1c1nc2c(c(-c3cccc(C4(O)CS(=O)(=O)C4)c3)n1)CCC2` [Example 397, (S)-3-hydroxy-3-(3-(2-(2-methylazetidin-1-yl)-6,7-dihydro-5H-cyclopenta[d]pyrimidin-4-yl)phenyl)thietane 1,1-dioxide] are 32.8 nM and 166 nM.
As for `CC12CCC(CC1)N2c1nc2c(c(-c3ccc(C(N)=O)cc3)n1)CCC2` [Example 398, 4-(2-(-1-methyl-7-azabicyclo[2.2.1]heptan-7-yl)-6,7-dihydro-5H-cyclopenta[d]pyrimidin-4-yl)benzamide], the IC50 at human KHK-C is above 5000 nM. Moreover, the EC50 in experiment [1] was above 5000 nM.
Take `C[C@H]1CCN1c1nc2c(c(-c3cn(C4CC4)nn3)n1)CCC2` [Example 644, 4-(1-cyclopropyltriazol-4-yl)-2-[(2S)-2-methylazetidin-1-yl]-6,7-dihydro-5H-cyclopenta[d]pyrimidine]: the EC50 in experiment [1] was 709 nM.
Still for that read-out and setting: as for `C[C@H]1CCN1c1nc2c(c(-c3cn(CCO)nn3)n1)CCC2` [Example 645, 2-[4-[2-[(2S)-2-methylazetidin-1-yl]-6,7-dihydro-5H-cyclopenta[d]pyrimidin-4-yl]triazol-1-yl]ethanol], the figure is 399 nM; as for `C[C@H]1CCN1c1nc(-c2ccc([C@H](N)C(F)F)cc2)c2c(n1)C(F)(F)CC2` [Example 650, (1S)-1-[4-[7,7-difluoro-2-[(2S)-2-methylazetidin-1-yl]-5,6-dihydrocyclopenta[d]pyrimidin-4-yl]phenyl]-2,2-difluoro-ethanamine], 39.1 nM.

(Values after US12410160B2 (Gilead Sciences, Inc., priority 2021, dated 2025).)
